Patent publication US20240424147A1, “PHTHALOCYANINE-LOADED MICELLES FOR THE DIRECT VISUALIZATION OF TUMORS” (THE TRUSTEES OF THE UNIVERSITY OF PENNSYLVANIA, priority 2022, published 2024)

Assays:
[1] = Photothermal stability, repeated heating and cooling cycles; type: physicochemical; settings: three 10-min heating/cooling cycles, 808 nm, 9.4 uM
Experimental: (§1) A total of twenty-eight phthalocyanine and nine naphthalocyanine dyes were loaded into polymeric micelles, composed of the amphiphilic diblock copolymer PEGPCL, via oil-in-water emulsions (FIGS. 16A, 16B, 16C). The nanoparticles were characterized by UV-absorption spectroscopy and dynamic light scattering. The photothermal heating potential and photothermal stability of nanoparticles were assessed by irradiating samples using an 808 nm laser for 10 minutes at 0.75 W. Photoacoustic imaging signal was assessed by loading micelles into a phantom submerged in water. The top 5 naphthalocyanines and top 4 phthalocyanines, based on PA and heating properties, were used for in vitro and in vivo studies. The cytotoxicity and photocytotoxicity of the various micelles were assessed with ovarian cancer ID8-luciferase cells and breast cancer 4T1 cells using an MTS cell proliferation assay.
Various Pc and Nc-loaded micelles (9.4 uM) were heated multiple times, using a laser (0.75 W/cm2), in 10-min increments. (FIG. 22) The samples were allowed to cool to room temperature between successive rounds.

[2] = free dye; cited from earlier work
[3] = PCs nanoparticles retention study: dialysis against 20 mM sodium cholate; type: physicochemical; settings: 24 h, in words
Experimental: 100 μL of PCs nanoparticles was diluted in 3 mL of 20 mM sodium cholate solution. Dialysis was performed with dialysis tubing (12,000-14,000 MWCO, Fisher) into 500 mL of 20 mM sodium cholate buffer at room temperature. The buffer was changed after 4 hours. The absorbance of the solutions was recorded before and after (24 hours) dialysis to determine dye retention percentage. […] Methylene blue (MB) is the only water-soluble blue dye that is used in this study.
PCs nanoparticles were synthesized using amphiphilic diblock copolymer (PEG-PCL) (FIG. 1A, phthalocyanine dyes used in this study are shown in FIGS. 4A-4F, see methods in Example 1). Due to the hydrophobic nature of PCs, they tend to aggregate in the aqueous medium (intermolecular interaction (π-π stacking)). […] The size of nanoparticles was determined with dynamic light scattering (DLS). […] The release of the PCs from PCs loaded micelles was assessed in sodium cholate buffer by monitoring leakage of PCs dyes as a function of time. […]
100 μL of PCs nanoparticles was diluted in 3 mL of 20 mM sodium cholate solution. […] The absorbance of the solutions was recorded before and after (24 hours) dialysis to determine dye retention percentage.

[4] = test system: 4T1 triple-negative breast flank tumors; assay: Direct visualization of 4T1 flank tumors after injection of micelles (SBR by ImageJ); type: in vivo, BALB/c mice; settings: 10 mg/kg intravenous (retro-orbital), 24 h where stated
Experimental: Photographs were quantified using ImageJ. Normalized signal-to-background (SBR) measurements were made using the tumor (i.e., the intensity of the blue color) and its surrounding tissue as background after 24 h of PCs loaded micelles (10 mg/kg) and MB (10 mg/kg) intravenous (retro-orbital) injection (n=3).
To identify the PC-loaded micelle formulation that is best able to differentiate tumors from surrounding healthy tissues via direct visualization, BALB/c mice bearing syngeneic 4T1 triple-negative breast flank tumors were injected intravenously with the various micelle formulations (10 mg/kg based on the dye concentration, 24 h before evaluation). […] Normalized signal-to-background (SBR) measurements were calculated in ImageJ using the intensity of the blue color within the tumor and its surrounding tissue, respectively.
4T1 tumor cells (2×10^6 cells in 100 ul) were implanted in the right flank of BALB/c mice (aged 6 weeks). […]
To assess blue nanoparticle accumulation in the breast and spontaneous colorectal mice model, tumors were evaluated visually, and normalized signal-to-background (SBR) was quantitated for each tumor relative to the surrounding tissue by measuring the intensity of blue-green colors via ImageJ. […] Tissues were placed in microscope glass slides, imaged fluorescence in the Cy5 filter (excitation 628-40 nm, emission 692-40 nm), and analyzed via ImageJ. […]

[5] = Photothermal heating of micelles in water under 808 nm laser; type: physicochemical; settings: 808 nm laser 0.75 W/cm2, 10 min
Source text: FIGS. 1A-1H show the preparation, characterization and uses of the PC dye micelles according to the invention. […] Infrared thermal images of water and NiPC micelle solution under laser irradiation.
as §1
Pc and Nc-loaded micelles (9.4 uM dye concentration) and controls (empty micelles and water) were prepared and then irradiated at 808 nm (0.75 W/cm2) continuously for 10 min; heating of each sample was measured as a function of time. (FIG. 21)

SMILES | heating ability after repeated irradiation [1] | clearance upon injection [2] | release from the dialysis tubing [3] | tumor contrast / dye accumulation by direct visualization [4] | PTT performance compared with other dyes [5]
CC1(C)C(/C=C/C=C/C=C/C=C2\N(CCCCS(=O)(=O)O)c3ccc4ccccc4c3C2(C)C)=[N+](CCCCS(=O)(=O)[O-])c2ccc3ccccc3c21 [ICG, indocyanine green] | lost its ability to heat | cleared within minutes upon injection |  |  | 
CN(C)c1ccc2nc3ccc(=[N+](C)C)cc-3sc2c1 [MB, Methylene blue] |  | cleared within minutes upon injection | released entirely | no accumulation was observed | 
CCCCOc1c2c(c(OCCCC)c3ccccc13)-c1nc-2nc2[n-]c(nc3nc(nc4[n-]c(n1)c1c(OCCCC)c5ccccc5c(OCCCC)c41)-c1c-3c(OCCCC)c3ccccc3c1OCCCC)c1c(OCCCC)c3ccccc3c(OCCCC)c21.[Cu+2] [CuNc Octa, Copper(II) 5,9,14,18,23,27,32,36-octabutoxy-2,3-naphthalocyanine] |  |  |  |  | outperforms all previously tested Pc/Nc dyes for PTT
